From ChEMBL document CHEMBL4616592, “Design, synthesis and bio-evaluation of C-1 alkylated tetrahydro-β-carboline derivatives as novel antifungal lead compounds” (Bioorg Med Chem Lett, 2020) come the findings set out here.

Values after ≈ are worked out from the molar mass of the structure shown. Active and inactive are the calls of the source. No cut-off for these calls is given here. Bounds are passed on as bounds.

Data set [1] relates to Pichia kudriavzevii. The data set can be described thus: Antifungal activity against Candida krusei assessed as fungal growth inhibition. The format is functional.
The test system of data set [2] is Nakaseomyces glabratus. The data set can be described thus: Antifungal activity against Candida glabrata assessed as fungal growth inhibition. The format is functional.
Data set [3] relates to Candida albicans. Put plainly: Antifungal activity against Candida albicans assessed as fungal growth inhibition. The class given is functional.
Data set [4] deals with Kluyveromyces marxianus. The data set can be described thus: Antifungal activity against Candida kefyr assessed as fungal growth inhibition. The class given is functional.
Data set [5] deals with Cryptococcus neoformans. Put plainly: Antifungal activity against Cryptococcus neoformans assessed as fungal growth inhibition. The format is functional.
Data set [6] relates to Candida tropicalis. The data set can be described thus: Antifungal activity against Candida tropicalis assessed as fungal growth inhibition. The class given is functional.
The subject of data set [7] is Candida parapsilosis. Put plainly: Antifungal activity against Candida parapsilosis assessed as fungal growth inhibition. The class given is functional. As to conditions: Lodderomyces parapsilosis.
The subject of data set [8] is Nakaseomyces glabratus. The data set can be described thus: Induction of apoptosis in Candida glabrata assessed as late apoptotic cells at 9.70 uM incubated for 4 hrs by annexin V-FITC/propidium iodide staining based analysis (reference value: 0.1%). The class given is functional.
In data set [9] the test system is Nakaseomyces glabratus. Put plainly: Induction of morphological changes in Candida glabrata assessed as disintegration of cell surface at 9.7 uM by FE-SEM analysis. The class given is functional, organism-based.
Data set [10] concerns Nakaseomyces glabratus. Put plainly: Induction of apoptosis in Candida glabrata assessed as live cells at 9.70 uM incubated for 4 hrs by annexin V-FITC/propidium iodide staining based analysis (reference value: 95.5%). The format is functional.
The nature of data set [11]: Cytotoxicity against human HEK293 cells assessed as cell viability at 20 to 50 uM by MTT assay relative to control. As to conditions: read-out: Activity. The format is cell-based.
Data set [12] has as its system Nakaseomyces glabratus. The data set can be described thus: Induction of apoptosis in Candida glabrata assessed as early apoptotic cells at 9.70 uM incubated for 4 hrs by annexin V-FITC/propidium iodide staining based analysis (reference value: 3%). The format is functional.
Data set [13] relates to Nakaseomyces glabratus. The data set can be described thus: Synergistic antifungal activity against Candida glabrata assessed as fold potentiation of fluconazole MIC for antifungal activity by checkerboard assay relative to control. The class given is functional.
The subject of data set [14] is Nakaseomyces glabratus. Put plainly: Synergistic antifungal activity against Candida glabrata assessed as fractional inhibitory concentration index in presence of ketoconazole by checkerboard assay. The class given is functional.
The subject of data set [15] is Nakaseomyces glabratus. Put plainly: Synergistic antifungal activity against Candida glabrata assessed as fold potentiation of ketoconazole MIC for antifungal activity by checkerboard assay relative to control. The format is functional.
A short description of data set [16]: Cytotoxicity against human HEK293 cells assessed as cell viability at 2.5 uM by MTT assay relative to control. The class given is cell-based. As to conditions: read-out: Activity.
Data set [17] can be described thus: Cytotoxicity against human HEK293 cells assessed as reduction in cell viability at 10 uM by MTT assay relative to control. The class given is cell-based. As to conditions: read-out: INH. A general note: Formazan colour is commonly taken as a measure of viable cells.
The nature of data set [18]: Cytotoxicity against human HeLa cells assessed as cell viability at 20 to 50 uM by MTT assay relative to control. The class given is cell-based. The note with it: read-out: Activity.
In data set [19] the test system is Nakaseomyces glabratus. The data set can be described thus: Synergistic antifungal activity against Candida glabrata assessed as fold potentiation of AmphotericinB MIC for antifungal activity by checkerboard assay relative to control. The class given is functional.
Data set [20] relates to Nakaseomyces glabratus. Put plainly: Induction of apoptosis in Candida glabrata assessed as necrotic cells at 9.70 uM incubated for 4 hrs by annexin V-FITC/propidium iodide staining based analysis (reference value: 1.4%). The format is functional.
Data set [21] deals with Nakaseomyces glabratus. The data set can be described thus: Induction of morphological changes in Candida glabrata assessed as roughness of cell surface at 9.7 uM by FE-SEM analysis. The class given is functional, organism-based.
The nature of data set [22]: Cytotoxicity against human HeLa cells assessed as reduction in cell viability at 10 uM by MTT assay relative to control. The format is cell-based. As to conditions: read-out: INH.
Data set [23] has as its system Nakaseomyces glabratus. The data set can be described thus: Synergistic antifungal activity against Candida glabrata assessed as fractional inhibitory concentration index in presence of amphotericin B by checkerboard assay. The class given is functional.
The test system of data set [24] is Nakaseomyces glabratus. Put plainly: Induction of morphological changes in Candida glabrata assessed as increase in asymmetry at 9.7 uM by FE-SEM analysis. The format is functional, organism-based.
The test system of data set [25] is Nakaseomyces glabratus. Put plainly: Synergistic antifungal activity against Candida glabrata assessed as fractional inhibitory concentration index in presence of fluconazole by checkerboard assay. The class given is functional.
Data set [26] deals with Nakaseomyces glabratus. The data set can be described thus: Fungicidal activity against Candida glabrata assessed as time taken to kill fungal colony at MIC by time kill kinetic assay. The class given is functional.

One may read the MIC as the lowest concentration that inhibits growth of the organism. As for `CCCCCC[C@H]1N[C@H](C(=O)OC)Cc2c1[nH]c1ccccc21`, the MIC in data set [1], in data set [2], in data set [3], in data set [4], in data set [5] and in data set [6] was above 250 µM throughout. The MIC in [7] is above 250 µM.

As to `COC(=O)[C@@H]1Cc2c([nH]c3ccccc23)[C@@H](c2cccnc2)N1`, the MIC in [1], in data set [2], in data set [3], in [4], in data set [5] and in data set [6] was above 250 µM each time. Moreover, the minimum inhibitory concentration (MIC) in data set [7] was above 250 µM.

`COC(=O)[C@@H]1Cc2c([nH]c3ccccc23)[C@@H](c2ccc3c(c2)OCO3)N1`: the MIC in data set [1], in data set [2], in [3], in data set [4], in [5] and in data set [6] was above 250 µM each time. In addition, the MIC in data set [7] is above 250 µM.

Consider `CCCCCCCCCCC[C@H]1N[C@H](C(=O)OC)Cc2c1[nH]c1ccccc21`, for which the MIC in data set [1], in [2], in data set [3], in [4], in [5] and in data set [6] was above 250 µM in each case. For the same molecule, in data set [7], the MIC was above 250 µM.

With `CC(=O)N1CCN(c2ccc(OCC3COC(Cn4ccnc4)(c4ccc(Cl)cc4Cl)O3)cc2)CC1` (stereo unspecified) [KETOCONAZOLE], the minimal inhibitory concentration (MIC) in data set [2] came to 15.1 µM (≈ 8 µg/mL).

With `CCCCCC[C@@H]1N[C@H](C(=O)OC)Cc2c1[nH]c1ccccc21`, the MIC is above 250 µM in data set [1]; above 250 µM in [2]; above 250 µM in data set [3]; above 250 µM in [4]; 156 µM (≈ 49.1 µg/mL) in data set [5]; above 250 µM in data set [6]. Besides, in data set [7], the MIC is above 250 µM.

Regarding `OC(Cn1cncn1)(Cn1cncn1)c1ccc(F)cc1F` [FLUCONAZOLE], the MIC in [2] turned out to be 13.1 µM (≈ 4 µg/mL).

Consider `CCCCCCCC[C@@H]1N[C@H](C(=O)OC)Cc2c1[nH]c1ccccc21`, for which the MIC was above 250 µM in [1]; 62.5 µM (≈ 21.4 µg/mL) in [2]; above 250 µM in data set [3]; 62.5 µM (≈ 21.4 µg/mL) in data set [4]; 39.1 µM (≈ 13.4 µg/mL) in data set [5]; above 250 µM in [6]. Also, in [7], the MIC is above 250 µM.

Take `COC(=O)[C@@H]1Cc2c([nH]c3ccccc23)[C@H](c2cccs2)N1`: the MIC in data set [1], in data set [2], in [3], in data set [4], in data set [5] and in [6] was above 250 µM each time. Also, the MIC in data set [7] was above 250 µM.

For the molecule `COC(=O)[C@@H]1Cc2c([nH]c3ccccc23)[C@@H](c2cccs2)N1`, the MIC in data set [1], in data set [2], in data set [3], in data set [4], in data set [5] and in data set [6] was above 250 µM in each case. Besides, the MIC in [7] was above 250 µM.

Regarding `CCCCCCCCCCC[C@@H]1N[C@H](C(=O)OC)Cc2c1[nH]c1ccccc21`, the MIC in data set [1], in data set [2], in data set [3], in data set [4], in data set [5] and in data set [6] was above 250 µM each time. In data set [7], the minimal inhibitory concentration (MIC) is above 250 µM.

Take `COC(=O)[C@@H]1Cc2c([nH]c3ccccc23)[C@@H](c2ccccc2)N1`: the MIC is above 250 µM in data set [1]; above 250 µM in data set [2]; above 250 µM in data set [3]; 125 µM (≈ 38.3 µg/mL) in data set [4]; above 250 µM in data set [5]; above 250 µM in [6]. Moreover, the MIC in data set [7] is above 250 µM.

Consider `COC(=O)[C@@H]1Cc2c([nH]c3ccccc23)[C@H](c2ccccc2)N1`, for which the MIC in [1], in data set [2], in [3], in data set [4], in data set [5] and in data set [6] was above 250 µM throughout. Also, in data set [7], the MIC is above 250 µM.

Turning to `CCCCCCCC[C@H]1N[C@H](C(=O)OC)Cc2c1[nH]c1ccccc21`, the Activity is given as 87.7% in data set [8], 5.6% in data set [10], 3.5% in [12] and 3.2% in data set [20]. The result in data set [9], in [21] and in data set [24] was Active. Also, the MIC in data set [1] is 19.6 µM (≈ 6.7 µg/mL); in [2], 9.7 µM (≈ 3.32 µg/mL); in data set [3], 39.1 µM (≈ 13.4 µg/mL); in data set [4] it was 9.7 µM (≈ 3.32 µg/mL); in [5] it was 19.6 µM (≈ 6.7 µg/mL); in [6] it was 19.6 µM (≈ 6.7 µg/mL). Besides, the MIC in data set [7] stood at 39.1 µM (≈ 13.4 µg/mL). Further, the viability at up to 50 µM in [11] and in data set [18] was 70 to 80% throughout. The results for the “fold change (FC)” value in data set [13], in [15] and in data set [19] were 4, 9 and 11, respectively. Besides, the “fractional inhibitory concentration index (FICI)” value in [14] is 0.35 - 0.38; in data set [23], 0.24; in data set [25] it was 0.48. Besides, the viability at 2.5 µM in data set [16] was 95%. Besides, the cytotoxicity at 10 µM stood at 10% in data set [17] and 14% in data set [22]. In [26], the Time was 12 h.

Turning to `CCCC[C@H]1N[C@H](C(=O)OC)Cc2c1[nH]c1ccccc21`, the minimal inhibitory concentration (MIC) in data set [1] is 156 µM (≈ 44.7 µg/mL); in [2], above 250 µM; in data set [3], above 250 µM; in data set [4], 156 µM (≈ 44.7 µg/mL); in [5], above 250 µM; in data set [6] it was above 250 µM. Moreover, the MIC in [7] worked out at 156 µM (≈ 44.7 µg/mL).

Take `CCCC[C@@H]1N[C@H](C(=O)OC)Cc2c1[nH]c1ccccc21`: the MIC in data set [1], in data set [2], in data set [3], in data set [4], in [5] and in data set [6] was above 250 µM each time. For the same molecule, in data set [7], the MIC is above 250 µM.

Turning to `C[C@@H]1[C@H](O)[C@@H](C)/C=C/C=C/C=C/C=C/C=C/C=C/C=C/[C@H](O[C@@H]2O[C@H](C)[C@@H](O)[C@H](N)[C@@H]2O)C[C@@H]2O[C@](O)(C[C@@H](O)C[C@@H](O)[C@H](O)CC[C@@H](O)C[C@@H](O)CC(=O)O[C@H]1C)C[C@H](O)[C@H]2C(=O)O` [AMPHOTERICIN B], the MIC in [1] is 0.78 µM (≈ 0.721 µg/mL); in [2], 0.39 to 0.78 µM (≈ 0.36 to 0.721 µg/mL); in [3], 1.56 µM (≈ 1.44 µg/mL); in data set [4] it was 12.5 µM (≈ 11.6 µg/mL); in data set [5] it was 0.78 µM (≈ 0.721 µg/mL); in data set [6], 0.78 µM (≈ 0.721 µg/mL). Also, in data set [7], the MIC came out at 1.56 µM (≈ 1.44 µg/mL). Moreover, the Time in [26] turned out to be 4 h.

As for `COC(=O)[C@@H]1Cc2c([nH]c3ccccc23)[C@H](c2cccnc2)N1`, the MIC in [1], in [2], in data set [3], in data set [4], in data set [5] and in data set [6] was above 250 µM in each case. Besides, the MIC in data set [7] is above 250 µM.

Turning to `COC(=O)[C@@H]1Cc2c([nH]c3ccccc23)[C@H](c2ccc3c(c2)OCO3)N1`, the MIC in [1], in data set [2], in data set [3], in data set [4], in data set [5] and in [6] was above 250 µM in each case. Also, the MIC in data set [7] was above 250 µM.
